One data set concerns B. subtilis, ATCC-6633. The data set can be described thus: MIC, standard method of the Japan Society of Chemotherapy (Mueller-Hinton Broth medium). The format is cell-based. The settings on record: Bacillus subtilis, ATCC6633, 10^6 /ml of bacteria, 37° C., 18 hours. As for the experimental part:
(§1) *Determined by the standard method of the Japan Society of Chemoterapy:
(§2) (MuellerHinton Broth medium), 10^6 /ml of bacteria were seeded and
(§3) incubated at 37° C. for 18 hours.

A further data set has as its system E. coli, NIHJ. The description is as above. The conditions noted are these: Escherichia coli, 10^6 /ml of bacteria, 37° C., 18 hours. The format is cell-based. As to the method: as §1, §2, §3
The next data set has as its system Ent. cloacae, 03400. The data set is described as above. The format is cell-based. The conditions noted are these: Enterobacter cloacae, 10^6 /ml of bacteria, 37° C., 18 hours. As for the experimental part: as §1, §2, §3
Another data set concerns K. pneumoniae, type 1. Described as above. In kind it is cell-based. The settings on record: Klebsiella pneumoniae, TYPE1, 10^6 /ml of bacteria, 37° C., 18 hours. As to the method: as §1, §2, §3
A further data set concerns Pr. mirabilis, IFO-3849. The description is as above. The format is cell-based. The settings on record: Proteus mirabilis, IFO3849, 10^6 /ml of bacteria, 37° C., 18 hours. As to the method:
as §1, §2, §3

For the next data set, the system named is Pr. vulgaris, 08602. Described as above. In kind it is cell-based. The settings on record: Proteus vulgaris, 10^6 /ml of bacteria, 37° C., 18 hours. As for the experimental part: as §1, §2, §3
The test system of the next data set is Ps. aeruginosa, 32104. The data set is described as above. The settings on record: Pseudomonas aeruginosa, 10^6 /ml of bacteria, 37° C., 18 hours. In kind it is cell-based. As to the method: as §1, §2, §3
The subject of another data set is Ps. aeruginosa, 32121. The data set is described as above. The format is cell-based. The settings on record: Pseudomonas aeruginosa, 10^6 /ml of bacteria, 37° C., 18 hours. As to the method: as §1, §2, §3
A further data set concerns Ps. aeruginosa, 32122. Described as above. The settings on record: Pseudomonas aeruginosa, 10^6 /ml of bacteria, 37° C., 18 hours. In kind it is cell-based. As for the experimental part: as §1, §2, §3
Another data set has as its system Ps. aeruginosa, 32233. The description is as above. The conditions noted are these: Pseudomonas aeruginosa, 10^6 /ml of bacteria, 37° C., 18 hours. In kind it is cell-based. As to the method: as §1, §2, §3
The next data set relates to Ps. aeruginosa, 32234. The description is as above. The format is cell-based. The settings on record: Pseudomonas aeruginosa, 10^6 /ml of bacteria, 37° C., 18 hours. As for the experimental part:
as §1, §2, §3

In another data set the test system is S. aureus, 209 P. The data set is described as above. In kind it is cell-based. The conditions noted are these: Staphylococcus aureus, 10^6 /ml of bacteria, 37° C., 18 hours. As for the experimental part:
as §1, §2, §3

Another data set relates to S. epidermidis, 56500. Described as above. In kind it is cell-based. The conditions noted are these: Staphylococcus epidermidis, 10^6 /ml of bacteria, 37° C., 18 hours. As to the method:
as §1, §2, §3

For a further data set, the system named is Ser. marcescens, 10104. The data set is described as above. In kind it is cell-based. The conditions noted are these: Serratia marcescens, 10^6 /ml of bacteria, 37° C., 18 hours. As for the experimental part:
as §1, §2, §3

In a further data set the test system is Sh. flexneri, 2a, 5503. The data set is described as above. In kind it is cell-based. The settings on record: Shigella flexneri, 10^6 /ml of bacteria, 37° C., 18 hours. As to the method: as §1, §2, §3
The test system of data set [1] is Str. faecalis, ATCC-19433. The description is as above. The format is cell-based. The settings on record: Enterococcus faecalis, ATCC19433, 10^6 /ml of bacteria, 37° C., 18 hours. As for the experimental part:
as §1, §2, §3

For a further data set, the system named is Str. pyogenes, G-36. The data set is described as above. In kind it is cell-based. The conditions noted are these: Streptococcus pyogenes, G36, 10^6 /ml of bacteria, 37° C., 18 hours. As to the method:
as §1, §2, §3

The next data set has as its system Gram-positive bacteria. The data set can be described thus: antibacterial activity, statement in words. The format is cell-based. The conditions noted are these: from Table 1. As for the experimental part:
as §1, §2, §3

Data set [2] in a line: acute toxicity (LD 50) in mice (i.v.). The conditions noted are these: mouse, in vivo, iv.
A further data set deals with Pseudomonas aeruginosa. In words: antibacterial activity, statement in words. The format is cell-based. The conditions noted are these: from Table 1. As for the experimental part:
as §1, §2, §3

≈ marks a conversion by molar mass, not a printed value. Where a name gives a salt, the structure may show the parent alone.

A word on the MIC: it is the least concentration at which growth counts as inhibited. For the compound `C=C1COc2c(N3CCC(O)C3)c(F)cc3c(=O)c(C(=O)O)cn1c23` (centres unmarked) [Ia, 9-fluoro-10-(3-hydroxy-1-pyrrolidnyl)-3-methylene-7-oxo-2,3-dihydro-7H-pyrido(1,2,3-de)-1,4-benzoxazine-6-carboxylic acid], the MIC in the data set with B. subtilis, ATCC-6633 was not above 0.0063 µg/mL; against E. coli, NIHJ it was 0.0125 µg/mL (≈ 0.0361 µM); in the data set on Ent. cloacae, 03400 it was 0.05 µg/mL (≈ 0.144 µM); against K. pneumoniae, type 1, 0.19 µg/mL (≈ 0.549 µM); against Pr. mirabilis, IFO-3849, 0.05 µg/mL (≈ 0.144 µM); with Pr. vulgaris, 08602, 0.025 µg/mL (≈ 0.0722 µM). Further, the MIC came out at 0.78 µg/mL (≈ 2.25 µM) against Ps. aeruginosa, 32104; 0.19 µg/mL (≈ 0.549 µM) with Ps. aeruginosa, 32121; 0.78 µg/mL (≈ 2.25 µM) in the data set on Ps. aeruginosa, 32122; 0.78 µg/mL (≈ 2.25 µM) with Ps. aeruginosa, 32233; 0.78 µg/mL (≈ 2.25 µM) against Ps. aeruginosa, 32234; 0.05 µg/mL (≈ 0.144 µM) against S. aureus, 209 P. In addition, the MIC in the data set with S. epidermidis, 56500 is 0.19 µg/mL (≈ 0.549 µM); with Ser. marcescens, 10104, 0.1 µg/mL (≈ 0.289 µM); with Sh. flexneri, 2a, 5503 it was 0.025 µg/mL (≈ 0.0722 µM); in [1] it was 0.39 µg/mL (≈ 1.13 µM); with Str. pyogenes, G-36, 0.78 µg/mL (≈ 2.25 µM). Further, the “antibacterial activity against Gram-positive bacteria” value in the data set with Gram-positive bacteria is recorded as “very strong antibacterial activity”.
The LD50 is the dose expected to kill half of the subjects tested. The compound `C=C1COc2c(N3CCC(O)C3)c(F)cc3c(=O)c(C(=O)O)cn1c23` (centres unmarked) [Ia, sodium salt] yielded an LD50 in data set [2] of 333 mg/kg.
`C=C1COc2c(N3CCC(N)C3)c(F)cc3c(=O)c(C(=O)O)cn1c23` (centres unmarked) [Ib, 10-(3-amino-1-pyrrolidinyl)-9-fluoro-3-methylene-7-oxo-2,3-dihydro-7H-pyrido(1,2,3-de)-1,4-benzoxazine-6-carboxylic acid]: the MIC in the data set on B. subtilis, ATCC-6633 worked out at 0.05 µg/mL (≈ 0.145 µM); against E. coli, NIHJ, 0.025 µg/mL (≈ 0.0724 µM); in the data set on Ent. cloacae, 03400, 0.025 µg/mL (≈ 0.0724 µM); in the data set with K. pneumoniae, type 1, 0.05 µg/mL (≈ 0.145 µM); against Pr. mirabilis, IFO-3849, 0.025 µg/mL (≈ 0.0724 µM); with Pr. vulgaris, 08602, 0.025 µg/mL (≈ 0.0724 µM). For the same compound, the MIC against Ps. aeruginosa, 32104 is 0.1 µg/mL (≈ 0.29 µM); in the data set on Ps. aeruginosa, 32121, 0.05 µg/mL (≈ 0.145 µM); against Ps. aeruginosa, 32122, 0.1 µg/mL (≈ 0.29 µM); with Ps. aeruginosa, 32233, 0.19 µg/mL (≈ 0.55 µM); against Ps. aeruginosa, 32234 it was 0.1 µg/mL (≈ 0.29 µM); against S. aureus, 209 P it was 0.1 µg/mL (≈ 0.29 µM). In addition, the MIC with S. epidermidis, 56500 was 0.39 µg/mL (≈ 1.13 µM); in the data set on Ser. marcescens, 10104 it was 0.05 µg/mL (≈ 0.145 µM); in the data set on Sh. flexneri, 2a, 5503, 0.0125 µg/mL (≈ 0.0362 µM); in [1], 0.78 µg/mL (≈ 2.26 µM); in the data set with Str. pyogenes, G-36, 0.78 µg/mL (≈ 2.26 µM). Further, the “antibacterial activity against Pseudomonas aeruginosa” value in the data set on Pseudomonas aeruginosa was “very strong antibacterial activity”.
For `C=C1COc2c(N3CCC(N)C3)c(F)cc3c(=O)c(C(=O)O)cn1c23` (centres unmarked) [Ib, methanesulfonic acid addition salt], the LD50 in data set [2] was more than 320 mg/kg.

Source of the values: patent US4539401A, “Pyridobenzoxazine derivatives useful as antibacterial agents” (Daiichi Seiyaku Co., Ltd., priority 1982, dated 1985).
